Reference: patent publication US9895407B2, “Disinfecting formulations and uses thereof” (Sunny Wipes Pty Ltd, priority 2011, dated 2018)
Several values for one entry are separate records, joined by “and”; a condition that tells them apart may be missing. Equal entries are not always repeated.

Tests used:
hand microflora = experiment: Surgical handrub test, EN 12791:2005; format: in vivo, human; conditions: 5 volunteers, 60 seconds exposure, right hand under sterile glove for 3 hours
Description: The protocol is based upon European standard EN 12791:2005 designed for testing “Chemical disinfectants and antiseptics—Surgical hand disinfectant”.
The clean and healthy hands (free of cuts and abrasions and with short, clean fingernails) of 5 volunteers were initially washed for 1 min with soap and water and dried with paper towel. To establish base line flora levels the fingertips and thumb were rubbed for 1 minute on the base of a petri dish containing 10 ml of Tryptone Soy Broth (TSB). A separate petri dish was used for each hand. Dilutions of 10^−2 and 10^−3 were prepared from the TSB that were assayed by the pour-plate method using Tryptone Soy Agar (TSA) plates.
Immediately after sampling for the baseline and without recontamination of the hands the subjects performed the handrub test. The subjects were split into two groups which were alternately treated with the standard formulation or the test formulation initially and then the other formulation, separately by a week to allow re-colonisation of native flora. […]
Log10, values for immediate effect and sustained effect were then determined and a Log Reduction Factor for both test formulation and standard formulation were calculated based on the average difference between the log10 pre-value and the log10 post-value in each subject.

[1] = system: Escherichia coli (NCTC 10538); experiment: Hygienic handwash/handrub test, EN 1500:1997, artificially contaminated hands; format: in vivo; conditions: 60 second rub
Description: The protocol is based upon European standard EN 1500:1997 designed for testing “Chemical disinfectants and antiseptics—Hygienic handwash”. The subjects (15 volunteers with clean and healthy hands that were free of cuts and abrasions and having short, clean fingernails) were split into two approximately equal groups which were alternately treated with the standard formulation or the test formulation initially and then the other formulation, separately by a one day. The hands of the subjects were initially washed for 1 min with soap and water and dried with paper towel. […] Excess fluid was allowed to drain back into the container. Hands were air dried for 3 minutes, holding them in a horizontal position. Each subject was encouraged to rotate their hands to avoid the formation of droplets. Each subject was treated from the same batch of contamination fluid. After drying, fingertips and thumb were rubbed for 1 minute on the base of a Petri-dish, which contained 10 mL of TSB. A separate Petri-dish for each hand (Left and Right) was used. This was the Pre-value. Dilutions of 10^−4 and 10^−5 were prepared using sterile Peptone Water (PEP). Each dilution was spread onto pre-poured, dried TSA plates. […] This procedure was completed with a 5 second rinse of fingers under running tap water. For the test formulation, 3 mL of test product was dispensed onto the subject's hands and rubbed over for 30 seconds using the standard procedure as instructed. This was done twice to give total of 6 mL test product over 60 second rub. The test product procedure was completed with a 5 seconds rinse of fingers under running tap water. […] Dilutions of 10^0, 10^−1 and 10^−2 were spread on pre-poured and dried TSA plates. All plates were incubated at 36° C.±2° C. for 24-48 hours. After the incubation period, all the plates were checked and colony forming units on both standard and test sample were counted. Dilutions with counts that are within 15-300 cfu were used in the computation. Plates showing less than 15 cfu or no growth were also counted. […] The test culture used in this study was obtained from the University of New South Wales Culture Collection—Escherichia coli (NCTC 10538) A neutralizer validated according to prEN 12054 were incorporated in the sampling fluids and diluents for the assessment of post-values in both test and reference procedure. […] The test organism was freshly revived from frozen protect beads by sub culturing in two McCartney bottles containing 5 mL of TSB. They were incubated at 37° C. These cultures are then inoculated into two bottles containing 1 L TSB. They were incubated at 37° C. for 18-24 hours The cultures were pooled into a sterile bottle to prepare the bacterial suspension. […] For testing this product, a cross-over design was used. […]

[2] = system: Escherichia coli (NCTC 10538); experiment: as above; format: in vivo; conditions: N = 14 subjects
[3] = per subject and hand, duplicate plates, 2 x 3 mL

Row | SMILES | reduction of hand microflora, after 3 hours (hand microflora) [Logs] | Postvalues ([1]; per subject and hand (L/R), after 2 x 3 mL) | Number of cfu per plate, Postvalues, dilution 10^-0 [1, 3] | Number of cfu per plate, Postvalues, dilution 10^-1 [1, 3] | Number of cfu per plate, Postvalues, dilution 10^-2 [1, 3] | Log Y, average of subjects [2]
1 | CCCO [60% propan-1-ol, propan-1-ol] | 1.89 |  |  |  |  | 
2 | CC(C)O [60% propan-2-ol, propan-2-ol] |  | 625 and 5 (3×) and 0 (2×) and 235 (2×) and 455 and 52 and 127 and 240 and 1415 and 2050 and 5950 and 4 and 165 and 125 and 690 and 250 and 210 and 21 and 61 and 30 and 74 and 7 and 22 and 1530 | TNTC/TNTC (14×) and 42/41 and 0/0 (3×) and 5/4 and 58/46 and 134/120 and 4/3 and 5/5 and 246/275 and 232/182 and 19/22 and 54/69 and 86/62 and 3/10 and 21/22 | 108/94 and 9/3 and 177/129 and 62/63 and 1/0 and 5/3 and 0/0 (6×) and 20/27 and 50/41 and 2/0 and 26/22 and 141/142 and TNTC/TNTC (2×) and 0/5 and 18/15 and 9/16 and 17/30 and 62/76 and 26/24 and 19/23 and 8/8 and 1/5 and 1/11 and 1/2 | 5/16 and 0/3 and 11/19 and 2/4 and 0/0 (12×) and 0/1 (2×) and 2/1 and 3/9 and 7/3 and 11 cfu and 16/ cfu and 56/ cfu and 0/2 and 1/0 and 10/9 and 17 cfu and 1/2 and 3/5 | 1.97
